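Test compounds were applied to cells in 96-well plates for 48 hours at 5 doses. TGI: concentration producing complete growth inhibition.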
Legend:
Assay in all cases: NCI tumour cell line growth inhibition, 48 h
A498 renal = test system: A498 renal
A549 NSCLC = test system: A549 NSCLC
CCRF-CEM leukemia = test system: CCRF-CEM leukemia
COLO 205 colon = test system: COLO 205 colon
DLD-1 colon = test system: DLD-1 colon
DMS 273 small cell lung = test system: DMS 273 small cell lung
HCC-2998 colon = test system: HCC-2998 colon
HCT-116 colon = test system: HCT-116 colon
HCT-15 colon = test system: HCT-15 colon
HL-60(TB) leukemia = test system: HL-60(TB) leukemia
HOP-18 NSCLC = test system: HOP-18 NSCLC
HOP-62 NSCLC = test system: HOP-62 NSCLC
HOP-92 NSCLC = test system: HOP-92 NSCLC
HT29 colon = test system: HT29 colon
IGROV1 ovarian = test system: IGROV1 ovarian
K-562 leukemia = test system: K-562 leukemia
KM12 colon = test system: KM12 colon
KM20L2 colon = test system: KM20L2 colon
LOX IMVI melanoma = test system: LOX IMVI melanoma
M19-MEL melanoma = test system: M19-MEL melanoma
MALME-3M melanoma = test system: MALME-3M melanoma
MCF7 breast = test system: MCF7 breast
MOLT-4 leukemia = test system: MOLT-4 leukemia
NCI-H23 lung = test system: NCI-H23 lung
NCI-H460 lung = test system: NCI-H460 lung
NCI-H522 lung = test system: NCI-H522 lung
NCI/ADR-RES ovarian = test system: NCI/ADR-RES ovarian
OVCAR-3 ovarian = test system: OVCAR-3 ovarian
OVCAR-4 ovarian = test system: OVCAR-4 ovarian
OVCAR-5 ovarian = test system: OVCAR-5 ovarian
OVCAR-8 ovarian = test system: OVCAR-8 ovarian
P388 leukemia = test system: P388 leukemia
P388/ADR leukemia = test system: P388/ADR leukemia
RPMI-8226 leukemia = test system: RPMI-8226 leukemia
RXF 393 renal = test system: RXF 393 renal
SF-295 CNS = test system: SF-295 CNS
SF-539 CNS = test system: SF-539 CNS
SK-MEL-2 melanoma = test system: SK-MEL-2 melanoma
SK-MEL-28 melanoma = test system: SK-MEL-28 melanoma
SK-MEL-5 melanoma = test system: SK-MEL-5 melanoma
SK-OV-3 ovarian = test system: SK-OV-3 ovarian
SN12C renal = test system: SN12C renal
SN12K1 renal = test system: SN12K1 renal
SNB-19 CNS = test system: SNB-19 CNS
SNB-75 CNS = test system: SNB-75 CNS
SNB-78 CNS = test system: SNB-78 CNS
SW-620 colon = test system: SW-620 colon
U251 CNS = test system: U251 CNS
UACC-257 melanoma = test system: UACC-257 melanoma
UO-31 renal = test system: UO-31 renal
786-0 renal = test system: 786-0 renal
ACHN renal = test system: ACHN renal
CAKI-1 renal = test system: CAKI-1 renal
DMS 114 small cell lung = test system: DMS 114 small cell lung
EKVX NSCLC = test system: EKVX NSCLC
LXFL 529 NSCLC = test system: LXFL 529 NSCLC
M14 melanoma = test system: M14 melanoma
RXF-631 renal = test system: RXF-631 renal
SF-268 CNS = test system: SF-268 CNS
SR leukemia = test system: SR leukemia
TK-10 renal = test system: TK-10 renal
UACC-62 melanoma = test system: UACC-62 melanoma
XF 498 CNS = test system: XF 498 CNS

O=C(/C=C\c1ccc(/C=C/C(=O)Nc2cccc(C3=NCCCN3)c2)cc1)Nc1cccc(C2=NCCCN2)c1
TGI (A498 renal): > 100 µM
TGI (A549 NSCLC): > 100 µM
TGI (CCRF-CEM leukemia): > 100 µM
TGI (COLO 205 colon): > 100 µM
TGI (DLD-1 colon): > 100 µM
TGI (DMS 273 small cell lung): > 100 µM
TGI (HCC-2998 colon): > 100 µM
TGI (HCT-116 colon): > 100 µM
TGI (HCT-15 colon): > 100 µM
TGI (HL-60(TB) leukemia): > 100 µM
TGI (HOP-18 NSCLC): > 100 µM
TGI (HOP-62 NSCLC): > 100 µM
TGI (HOP-92 NSCLC): > 100 µM
TGI (HT29 colon): > 100 µM
TGI (IGROV1 ovarian): > 100 µM
TGI (K-562 leukemia): > 100 µM
TGI (KM12 colon): > 100 µM
TGI (KM20L2 colon): > 100 µM
TGI (LOX IMVI melanoma): > 100 µM
TGI (M19-MEL melanoma): > 100 µM
TGI (MALME-3M melanoma): > 100 µM
TGI (MCF7 breast): > 100 µM
TGI (MOLT-4 leukemia): > 100 µM
TGI (NCI-H23 lung): > 100 µM
TGI (NCI-H460 lung): > 100 µM
TGI (NCI-H522 lung): > 100 µM
TGI (NCI/ADR-RES ovarian): > 100 µM
TGI (OVCAR-3 ovarian): > 100 µM
TGI (OVCAR-4 ovarian): > 100 µM
TGI (OVCAR-5 ovarian): > 100 µM
TGI (OVCAR-8 ovarian): > 100 µM
TGI (P388 leukemia): > 100 µM
TGI (P388/ADR leukemia): > 100 µM
TGI (RPMI-8226 leukemia): 76.3 µM
TGI (RXF 393 renal): > 100 µM
TGI (SF-295 CNS): > 100 µM
TGI (SF-539 CNS): > 100 µM
TGI (SK-MEL-2 melanoma): > 100 µM
TGI (SK-MEL-28 melanoma): > 100 µM
TGI (SK-MEL-5 melanoma): > 83.5 µM
TGI (SK-OV-3 ovarian): > 100 µM
TGI (SN12C renal): > 100 µM
TGI (SN12K1 renal): > 100 µM
TGI (SNB-19 CNS): > 100 µM
TGI (SNB-75 CNS): > 100 µM
TGI (SNB-78 CNS): > 100 µM
TGI (SW-620 colon): > 100 µM
TGI (U251 CNS): > 100 µM
TGI (UACC-257 melanoma): > 100 µM
TGI (UO-31 renal): > 100 µM

Cn1cc(NC(=O)c2cc(NC(=O)CCCCCCCC(=O)Nc3cc(C(=O)Nc4cc(C(=O)NCCC(=N)N)n(C)c4)n(C)c3)cn2C)cc1C(=O)NCCC(=N)N
TGI (786-0 renal): > 100 µM
TGI (A498 renal): 56.7 µM
TGI (A549 NSCLC): 36.8 µM
TGI (ACHN renal): > 100 µM
TGI (CAKI-1 renal): 47.5 µM
TGI (CCRF-CEM leukemia): 86.1 µM
TGI (COLO 205 colon): 26 µM
TGI (DLD-1 colon): > 100 µM
TGI (DMS 114 small cell lung): 11.9 µM
TGI (DMS 273 small cell lung): 25 µM
TGI (EKVX NSCLC): 68.2 µM
TGI (HCC-2998 colon): 30.2 µM
TGI (HCT-116 colon): 42.3 µM
TGI (HCT-15 colon): > 100 µM
TGI (HL-60(TB) leukemia): 16.3 µM
TGI (HOP-18 NSCLC): > 100 µM
TGI (HOP-62 NSCLC): > 100 µM
TGI (HOP-92 NSCLC): > 100 µM
TGI (HT29 colon): > 100 µM
TGI (IGROV1 ovarian): 25.3 µM
TGI (K-562 leukemia): > 100 µM
TGI (KM12 colon): 20 µM
TGI (KM20L2 colon): > 100 µM
TGI (LOX IMVI melanoma): 28.8 µM
TGI (LXFL 529 NSCLC): 28.8 µM
TGI (M14 melanoma): > 100 µM
TGI (M19-MEL melanoma): 16.7 µM
TGI (MALME-3M melanoma): 20.1 µM
TGI (MOLT-4 leukemia): 66.7 µM
TGI (NCI-H23 lung): 33.7 µM
TGI (NCI-H460 lung): 22 µM
TGI (OVCAR-3 ovarian): 65.7 µM
TGI (OVCAR-4 ovarian): > 100 µM
TGI (OVCAR-5 ovarian): > 100 µM
TGI (OVCAR-8 ovarian): 42.9 µM
TGI (RXF 393 renal): 41.3 µM
TGI (RXF-631 renal): > 100 µM
TGI (SF-268 CNS): 45.9 µM
TGI (SF-295 CNS): > 100 µM
TGI (SF-539 CNS): 33.1 µM
TGI (SK-MEL-2 melanoma): 27.9 µM
TGI (SK-MEL-28 melanoma): 26.3 µM
TGI (SK-MEL-5 melanoma): 22.3 µM
TGI (SK-OV-3 ovarian): > 100 µM
TGI (SN12C renal): 41 µM
TGI (SNB-19 CNS): > 100 µM
TGI (SNB-75 CNS): 70.8 µM
TGI (SNB-78 CNS): 93.5 µM
TGI (SR leukemia): 92.7 µM
TGI (SW-620 colon): > 100 µM
TGI (TK-10 renal): 36.7 µM
TGI (U251 CNS): 44.6 µM
TGI (UACC-257 melanoma): 23.8 µM
TGI (UACC-62 melanoma): 36.8 µM
TGI (UO-31 renal): > 100 µM
TGI (XF 498 CNS): 56.1 µM

From PubChem BioAssay (NCI)
